Assay results as given in patent US8575116B1, “Polyacetylenic compounds for protecting against pancreatic islet atrophy” (Academia Sinica, priority 2010, dated 2013).

What was measured:
[1] = test system: human insulin promoter in HIT-T15 β-cells; experiment: Insulin promoter (phINS-Luc) dual luciferase assay in HIT-T15 β-cells; format: cell-based, rat; conditions: FIG. 6C
Protocol: FIGS. 4A-C show an increase in insulin mRNA and protein content by cytopiloyne in pancreatic islet cells. (A) HIT-T15 β-cells transfected with phINS-Luc and pRL-TK plasmids were incubated with vehicle (NS), glimepiride (GLM, 10 μM), high glucose (HG, 16.7 mM) or cytopiloyne at 7, 14 or 28 μM. Ten μg of cell lysates from these cells underwent to dual luciferase assays. […] (C) Rat pancreatic islet cells were treated with vehicle, glucose (3.3 mM (LG) or 16.7 mM (HG)) or cytopiloyne (CP, 7, 14 and 28 μM) in the presence of brefeldin A for 24 h. After anti-insulin antibody staining, these cells underwent FACS analysis. The percentage of insulin-positive β-cells is shown. All the results from 3 independent experiments are expressed as mean±SEM, and P<0.05 was considered to be statistically significant (*).
(A) RIN-M5F cells were grown in medium with 16.7 mM (HG) or 3.3 mM glucose (LG) in the presence of PMA. GF and cytopiloyne. The insulin level of the supernatants was determined using an ELISA kit. (B) RIN-M5F cells were transfected with 5 μg of dominant-negative PKCα or control plasmid grown in medium with 16.7 mM (HG) or 3.3 mM glucose (LG) in the presence of PMA (1 μM), GF109203X (3 μM) or cytopiloyne. The insulin level of the supernatants was determined using an ELISA kit. (C) HIT-T15 cells were transfected with phINS-Luc and pRL-TK plasmids. The cells were grown in medium with 16.7 mM (HG) or 3.3 mM glucose (LG) in the absence or presence of PMA, GF109203X and cytopiloyne. The cell lysates were subjected to dual luciferase assays. (D) HIT-T15 cells were transfected with vehicle or dominant-negative PKCα plasmid together with phINS-Luc and pRL-TK plasmids. The cells were grown in medium with 16.7 mM (HG) or 3.3 mM glucose (LG) in the absence or presence of PMA and cytopiloyne. The cell lysates were subjected to dual luciferase assays.
Plasmids phINS-Luc and pRL-TK contain a human insulin promoter (2347 bp) from phINS-DCR3 vector linked to a firefly luciferase gene and the thymidine kinase promoter linked to Renilla luciferase reporter gene, respectively. Dominant-negative PKCα, phINS-Luc and/or pRL-TK were transfected into HIT-T15 cells with lipofectamine or electroporation.

HIT-T15 cells = experiment: Insulin secretion of β-cell line with PMA, GF109203X and cytopiloyne (ELISA); format: cell-based, rat; conditions: FIG. 6A
PKCα = PKCα translocation and phosphorylation (Western blot) in RIN-m5F cells; format: cell-based, rat; conditions: PMA 1 μM, glucose 16.7 mM
Protocol: (§1) FIGS. 5A-D show the effects of cytopiloyne on calcium mobilization, DAG generation and PKCa activation. (A) After Fura 2-AM loading, RIN-m5F cells were stimulated with 16.7 mM glucose (HG) and cytopiloyne at 7, 14 and 28 μM. Level of intracellular calcium, as shown by the 340/380 nm ratio, was detected using a fluorescence spectrophotometer. (B) RIN-m5F cells were pulsed with ^3H-myristic acid (5 Cim1^−1) for 16 hours. After washing, the cells were stimulated with glucose, cytopiloyne, PMA and glimepiride. Total lipids were separated on a silica thin layer plate. DAG and cholesterol were visualized with iodine vapor and identified by their standards. (C) RIN-m5F cells were incubated with vehicle (Mock), cytopiloyne (CP, 3, 7 and 14 μM), PMA (1 μM) and 16.7 mM (HG). Membrane or cytosolic proteins were subjected to Western blot with anti-PKCα and anti-Actin antibodies. (D) RIN-m5F cells were incubated with vehicle (Mock), cytopiloyne (CP 7 μM) and PMA (1 μM). After lysis, total lystaes were subjected to Western blot with anti-PKCα, anti-phospho-PKCα and anti-Actin antibodies.

RIN-m5F cells = experiment: DAG and cholesterol generation (3H-myristic acid, TLC) in RIN-m5F cells; format: cell-based, rat; conditions: versus vehicle control, glucose 16.7 mM
Protocol: as §1
RIN-m5F cells were incubated with ^3H-myristic acid ([…]) for 16 hours. After washing, the cells were treated with glucose, cytopiloyne, PMA and glimepiride. Total lipids were extracted as previously described. Radioactive DAG was separated on a silica thin layer plate with the first developer of ethylacetate: acetic acid: triethylpentane (9:2:5) and the second developer of hexane: diethylether: methanol: acetic acid (90:20:3:2). The spot of DAG was visualized with iodine vapor and identified by DAG standard.

STZ-treated C57BL mice [2] = experiment: Insulin sensitizer test: oral dose before insulin injection in STZ-treated C57BL mice; format: in vivo, mouse; conditions: cytopiloyne 0.5 and 2.5, glimepiride 2.5, metformin 60 mgkg^−1 oral; insulin 2.5 IUkg^−1
Protocol: (§2) FIGS. 3A-C show cytopiloyne-mediated insulin release depends on pancreatic islet cells. (A) Rat pancreatic islet cells were incubated with glucose-free KRB buffer containing vehicle or cytopiloyne at 1.5, 3, 7, 14, 28 and 42 μM (FIG. 3A-i). Similarly, rat pancreatic islet cells were incubated with KRB buffer containing vehicle, glimepiride (GLM, 10 μM) or cytopiloyne at 1.5, 3, 7, 14, 28 and 42 μM in the presence of 3.3 mM glucose (LG, FIG. 3A-ii) or 16.7 mM glucose (HG, FIG. 3A-iii). The insulin levels were determined using an insulin ELISA kit. The data presented as mean±SEM of 3 independent experiments. (B) Fed C57BL mice, which had already received an injection of STZ, were administered with an oral dose of vehicle, cytopiloyne (CP, 0.1, 0.5 and 2.5 mgkg^−1), and an intraperitoneal injection of insulin (Ins, 2.5 IUkg^−1). Blood sugar levels in the STZ-treated mice were determined using a glucometer. (C) C57BL mice, which had already received STZ, were orally administered with a single dose of vehicle, cytopiloyne (CP, 0.5 and 2.5 mgkg^−1), glimepiride (GLM, 2.5 mgkg^−1), or metformin (60 mgkg^−1), followed by an intraperitoneal injection with insulin (Ins). Blood sugar levels in the STZ-treated mice were determined using a glucometer. All the results from 3 independent experiments are expressed as mean±SEM, and P<0.05 was considered to be statistically significant (*). The number of mice (n) is indicated in parentheses.
To deplete pancreatic β-cells in mice, 6-week-old C57BL females (NLAC, Taipei, Taiwan) were intraperitoneally injected with STZ at 200 mgkg^−1. STZ-treated females with postprandial blood sugar over 500 mgdl^−1 were grouped. […] Blood glucose levels were monitored for 4 h. To distinguish sensitizer activity from releaser activity of cytopiloyne, STZ-treated C57BL mice were tube-fed with vehicle, glimepiride (2.5 mgkg^−1), metformin (60 mgkg^−1) or cytopiloyne (0.5 and 2.5 mgkg^−1) 1 h before insulin injection (2.5 IUkg^−1). Blood glucose levels in the mice were monitored from 0 to 4 h after insulin injection.

[3] = test system: adipocyte protein 2 (aP2); experiment: Real-time RT-PCR of aP2 mRNA relative to GAPDH in 3T3-L1 cells; format: cell-based, mouse; conditions: mouse, 8 days, 1 μM
adiponectin = experiment: Real-time RT-PCR of adiponectin mRNA relative to GAPDH in 3T3-L1 cells; format: cell-based, mouse; conditions: mouse, 8 days, 1 μM
β-cell line = experiment: Insulin secretion in β-cell line (unpublished data); format: cell-based
STZ-treated C57BL mice [4] = experiment: Blood glucose in STZ-treated (β-cell-depleted) C57BL mice; format: in vivo, mouse; conditions: cytopiloyne oral 0.1, 0.5 and 2.5 mgkg^−1; insulin i.p. 2.5 IUkg^−1
Protocol: as §2, with “(C) C57BL mice, which had already received STZ, were orally administered with a single dose of vehicle, cytopiloyne (CP, 0.5 and 2.5 mgkg^−1), glimepiride (GLM, 2.5 mgkg^−1), or metformin (60 mgkg^−1), followed by an intraperitoneal injection with insulin (Ins).” left out, “The number of mice (n) is indicated in parentheses.” left out
To deplete pancreatic β-cells in mice, 6-week-old C57BL females (NLAC, Taipei, Taiwan) were intraperitoneally injected with STZ at 200 mgkg^−1. […] Blood glucose levels were monitored for 4 h. […] Blood glucose levels in the mice were monitored from 0 to 4 h after insulin injection.

Question: `CN(C)CCCn1cc(C2=C(c3c[nH]c4ccccc34)C(=O)NC2=O)c2ccccc21` [GF109203X] was tested. Which “effect of PKC inhibitor on mediated insulin transcription” value ([1]; with cytopiloyne, glucose or PMA) did it give?
Answer: completely abolished cytopiloyne-, glucose- and PMA-mediated insulin transcription

Question: What about the “effect of PKC inhibitor on induced insulin secretion” value (HIT-T15 cells; with cytopiloyne or PMA) of the same compound?
Answer: inhibited cytopiloyne- and PMA-induced insulin secretion

Question: What does the source list for `CCCCCCCCCCCCCC(=O)O[C@@H]1[C@@H](C)[C@@]2(O)[C@@H](C=C(CO)C[C@]3(O)C(=O)C(C)=C[C@@H]23)[C@@H]2C(C)(C)[C@]12OC(C)=O` [PMA, phorbol 12-myristate 13-acetate, reference compound]?
Answer: phosphorylation of PKCα (PKCα; cytopiloyne 7 μM): increased phosphorylation of PKCα; translocation of PKCα from cytoplasm to membrane (PKCα; cytopiloyne 3, 7 and 14 μM): increased the translocation of PKCα from cytoplasm to membrane; insulin transcription in HIT-T15 cells ([1]; glucose 16.7 mM): stimulated insulin transcription; level of DAG (RIN-m5F cells): significantly increased the level of DAG; insulin secretion in β-cell line (HIT-T15 cells; glucose 16.7 mM): stimulated insulin secretion

Question: `CN(C)C(=N)N=C(N)N` [metformin] was tested. Which “blood sugar lowering when dosed 60 min before insulin injection” value (STZ-treated C57BL mice [2]) did it give?
Answer: significantly reduced blood glucose levels

Question: For `CN(CCOc1ccc(CC2SC(=O)NC2=O)cc1)c1ccccn1` (stereo not shown) [rosiglitazone], which “aP2 expression, times of the control” value [3] is on record?
Answer: 11 times

Question: And the “adiponectin expression level, times control levels” value (adiponectin)?
Answer: 21 times

Question: What does the source list for cytopiloyne aglycone?
Answer: induction of insulin secretion relative to cytopiloyne (β-cell line): less effective than cytopiloyne in inducing insulin secretion; insulin secretion in β-cell line (β-cell line): did stimulate insulin secretion in β-cell line to some extent

Question: With “insulin: Insulin purchased from Novo Nordisk, injected intraperitoneally” as the compound, how does the “reduction of hyperglycemia / blood glucose in β-cell-depleted mice” value (STZ-treated C57BL mice [4]) read?
Answer: still diminished blood glucose levels
